The subject of this test is endocardial tissue slabs (incorporating the construct injection site). The arrangement: species or system dog.

Turning to `NC1=N[C@H](O)[C@H]2[C@H]3O[C@]4(O)O[C@@H]([C@@H](O)[C@@]2(N1)[C@@H]4O)[C@]3(O)CO` [Tetrodotoxin, tetrodotoxin], the “effect on rate of isoproterenol-enhanced rhythms” value was “reductions in rate”. As for `COc1cc2c(cc1OC)CC(=O)N(CCCN(C)C[C@H]1Cc3cc(OC)c(OC)cc31)CC2` [ivabradine], the “effect on rate of isoproterenol-enhanced rhythms” value is given as “reductions in rate”.

Source of the values: patent US20160333071A1 (THE TRUSTEES OF COLUMBIA UNIVERSITY IN THE CITY OF NEW YORK, priority 2014, published 2016).
